Publication PMC6934184, “Selective DNA-PKcs inhibition extends the therapeutic index of localized radiotherapy and chemotherapy” (The Journal of Clinical Investigation, 2019)

Molecular target: T1, CDK5 (Inactive) (Homo sapiens, UniProt Q00535)
T1 construct: purchased Thermo Fisher Scientific (Life Technologies) SelectScreen
Assay: SelectScreen LanthaScreen
Type: binding
Conditions: read-out: % displacement
Outline: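 Percent values come from Thermo SelectScreen profiling of NU5455, combining activity and binding assays. CSF1R was run in Z'LYTE format at Km app ATP, and CAMK1 in Adapta format with ATP listed at 10.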

T1 sequence (Q00535 whole entry): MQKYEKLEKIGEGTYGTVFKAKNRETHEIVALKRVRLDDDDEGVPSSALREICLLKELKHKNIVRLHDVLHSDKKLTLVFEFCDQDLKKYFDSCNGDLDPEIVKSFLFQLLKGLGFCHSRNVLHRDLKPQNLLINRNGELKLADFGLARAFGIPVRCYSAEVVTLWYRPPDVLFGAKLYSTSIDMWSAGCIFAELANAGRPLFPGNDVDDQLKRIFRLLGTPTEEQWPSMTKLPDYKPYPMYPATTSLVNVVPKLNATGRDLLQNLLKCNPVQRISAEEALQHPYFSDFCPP

Question: Which inhibition at 1 µM does the source give for `CN(C(=O)CN1CCOCC1)c1ccc2sc3c(-c4cccc5c(=O)cc(N6CC7CCC(C6)O7)oc45)cccc3c2c1` [NU5455] here?
Answer: -2.1%
